# Source: patent publication US20240301319A1, “PERFUMING COMPOSITIONS” (FIRMNICH SA, priority 2017, published 2024)
# Tests used:
# [1] = Volatility of perfuming compounds (Tables 4 to 10), with top/middle/bottom note type; assay type: physicochemical
# Experimental: In some aspects, the first perfume accord comprises perfuming compounds having a volatility ranging from 70,000 to 100 μg/l in air. In some aspects, perfuming compounds having a volatility ranging from 70,000 to 100 μg/l in air are referred to as “top notes”.
# In some aspects, the second perfume accord comprises perfuming compounds having a volatility ranging from 99 to 50 μg/l in air. In some aspects, perfuming compounds having a volatility ranging from 99 to 50 μg/l in air are referred to as “middle notes”.
# In some aspects, the third perfume accord comprises perfuming compounds having a volatility ranging from 49 to 0.1 μg/l in air. In some aspects, perfuming compounds having a volatility ranging from 49 to 0.1 μg/l in air are referred to as “bottom notes”.
# Tables 4 to 10 describe top, middle and bottom note perfuming compounds for watery, green, fruity, citrus, sweet, gourmand and woody notes respectively.
# [2] = Odor threshold and odor value of perfuming compounds (Tables 4 to 10)
# [3] = Table 10, perfuming compounds having a woody note, note type by volatility
# [4] = Table 6, perfuming compounds having a fruity note
# [5] = Table 6, perfuming compounds having a fruity note, note type by volatility
# [6] = note type (Top/Middle/Bottom) by volatility, perfuming compounds having a green note
# [7] = perfuming compounds having a green note
# [8] = Table 8, perfuming compounds having a sweet note
# [9] = Table 8, perfuming compounds having a sweet note, note type by volatility
# [10] = Table 4, watery note, top, middle or bottom note
# [11] = Table 4, watery note, equals volatility divided by odor threshold
# [12] = Table 9, perfuming compounds having a gourmand note, note type by volatility
molecule,measurement,setting,value
CC(=O)O[C@@H]1CC2CC[C@]1(C)C2(C)C,Type,[1]; [3],Top
same,Volatility,"[1]; Table 10, woody note",735.37 μg/l air
same,Odor Threshold,"[2]; Table 10, woody note",4.46E−02 μg/l air
CCC/C=C/COC(C)=O [(E)-2-HEXENYL ACETATE],Volatility,[1]; [4],6062.68 μg/l air
same,Type,[1]; [5],"TOP (perfuming compounds having a volatility ranging from 70,000 to 100 μg/l in air are referred to as “top notes”)"
same,Type,[1]; [6],Top
same,Volatility (μg/l air),[1]; [7],6062.68 μg/l air
same,Odor Threshold (μg/l air),[2]; [7],2.08E−01 μg/l air
"Cc1cnc(C)c(C)n1 [2,3,5-TRIMETHYLPYRAZINE]",Volatility,[1]; [8],7897.31 μg/l air
same,Type,[1]; [9],Top
same,Odor Threshold,[2]; [8],2.82E−04 μg/l air
same,Odor Value,[2]; [8],2.80E+07
C[C@@H]1CC[C@H]2C(C)(C)[C@H]3C[C@@]12C[C@@H]1OC(C)(C)O[C@@]13C,Type,[1]; [3],Bottom
same,Volatility,"[1]; Table 10, woody note",0.00 μg/l air
same,Odor Threshold,"[2]; Table 10, woody note",3.90E−06 μg/l air
CC1(C)CCC[C@@]2(C)[C@H]1CC[C@@]1(C)OCC[C@@H]21,Type,[1]; [3],Bottom
same,Volatility,"[1]; Table 10, woody note",9.23 μg/l air
same,Odor Threshold,"[2]; Table 10, woody note",2.16E−03 μg/l air
CCCCSCCCC [DIBUTYL SULFIDE],Type,[1]; [6],Top
same,Volatility (μg/l air),[1]; [7],2766.10 μg/l air
same,Odor Threshold (μg/l air),[2]; [7],2.34E−02 μg/l air
CC1=CC2CC(C=O)C1CC2C(C)C (centres unmarked) [8-ISOPROPYL-6-METHYL-BICYCLO[2.2.2]OCT-5-ENE-2-CARBALDEHYDE],Volatility (μg/l air),"[1]; Table 4, watery note",131.02 μg/l air
same,Type,[1]; [10],"TOP (perfuming compounds having a volatility ranging from 70,000 to 100 μg/l in air are referred to as “top notes”)"
same,Type,[1]; [6],Top
same,Volatility (μg/l air),[1]; [7],131.02 μg/l air
same,Odor Threshold (μg/l air),"[2]; Table 4, watery note",7.11E−05 μg/l air
same,Odor Value,[2]; [11],1.84E+06
same,Odor Threshold (μg/l air),[2]; [7],7.11E−05 μg/l air
CCCCCC(C#N)CCC (racemic) [(+−)-2-propylheptanenitrile],Volatility,[1]; [4],439.00 μg/l air
same,Type,[1]; [5],"TOP (perfuming compounds having a volatility ranging from 70,000 to 100 μg/l in air are referred to as “top notes”)"
same,Volatility (μg/l air),"[1]; Table 7, citrus note",439.00 μg/l air
same,Type,"[1]; Table 7, citrus note, top, middle or bottom note",Top
same,Odor Threshold (μg/l air),"[2]; Table 7, citrus note",7.83E−02 μg/l air
same,Odor Value,"[2]; Table 7, citrus note, equals volatility divided by odor threshold",5.61E+03
"3-(4-ETHYLPHENYL)-2,2-DIMETHYLPROPANAL (A) + 3-(2-ETHYLPHENYL)-2,2-DIMETHYLPROPANAL (B)",Volatility (μg/l air),"[1]; Table 4, watery note",48.69 μg/l air
same,Type,[1]; [10],bottom (perfuming compounds having a volatility ranging from 49 to 0.1 μg/l in air are referred to as “bottom notes”)
same,Odor Threshold (μg/l air),"[2]; Table 4, watery note",5.33E−03 μg/l air
same,Odor Value,[2]; [11],9.14E+03
CC(C)=CCCC(C)CCCC(C)C=O (racemic),Volatility (μg/l air),"[1]; Table 4, watery note",18.23 μg/l air
same,Type,[1]; [10],bottom (perfuming compounds having a volatility ranging from 49 to 0.1 μg/l in air are referred to as “bottom notes”)
same,Odor Threshold (μg/l air),"[2]; Table 4, watery note",1.59E−02 μg/l air
same,Odor Value,[2]; [11],1.15E+03
CCC(O)COC1CCCCC1C(C)(C)C (racemic),Type,[1]; [3],Top
same,Volatility,"[1]; Table 10, woody note",205.05 μg/l air
same,Odor Threshold,"[2]; Table 10, woody note",3.53E−02 μg/l air
"COc1ccc(OC)c(C(C)(C)C)c1 [2-TERT-BUTYL-1,4-DIMETHOXYBENZENE]",Type,[1]; [3],Middle
same,Volatility,"[1]; Table 10, woody note",82.95 μg/l air
same,Odor Threshold,"[2]; Table 10, woody note",1.65E−02 μg/l air
CCC(C)(O)CCCC(C)C (racemic),Type,[1]; [6],Top
same,Volatility (μg/l air),[1]; [7],421.15 μg/l air
same,Odor Threshold (μg/l air),[2]; [7],3.45E−03 μg/l air
CC/C=C\CCOC(=O)C/C=C\CC [(3Z)-3-hexen-1-yl (3Z)-3-hexenoate],Volatility,[1]; [4],210.68 μg/l air
same,Type,[1]; [5],"TOP (perfuming compounds having a volatility ranging from 70,000 to 100 μg/l in air are referred to as “top notes”)"
same,Volatility,[1]; [8],210.68 μg/l air
same,Type,[1]; [9],Top
same,Volatility,"[1]; Table 9, gourmand note",210.68 μg/l air
same,Type,[1]; [12],Top
same,Type,[1]; [6],Top
same,Volatility (μg/l air),[1]; [7],210.68 μg/l air
same,Odor Threshold,[2]; [8],5.17E−02 μg/l air
same,Odor Value,[2]; [8],4.08E+03
same,Odor Threshold,"[2]; Table 9, gourmand note",5.17E−02 μg/l air
same,Odor Threshold (μg/l air),[2]; [7],5.17E−02 μg/l air
C=C(C)CC(C)OC(=O)C(C)C (racemic),Volatility,[1]; [4],9902.98 μg/l air
same,Type,[1]; [5],"TOP (perfuming compounds having a volatility ranging from 70,000 to 100 μg/l in air are referred to as “top notes”)"
same,Volatility,[1]; [8],9902.98 μg/l air
same,Type,[1]; [9],Top
same,Volatility,"[1]; Table 9, gourmand note",9902.98 μg/l air
same,Type,[1]; [12],Top
same,Odor Threshold,[2]; [8],2.26E−01 μg/l air
same,Odor Value,[2]; [8],4.39E+04
same,Odor Threshold,"[2]; Table 9, gourmand note",2.26E−01 μg/l air
CC1COCc2cc3c(cc21)C(C)(C)C(C)C3(C)C (racemic),Volatility,[1]; [4],1.59 μg/l air
same,Type,[1]; [5],Bottom
same,Odor Threshold,[2]; [4],2.62E−04 μg/l air
same,Odor Value,[2]; [4],6.08E+03
CC/C=C(\C)C(O)CCCCC (racemic) [(+−)-(E)-4-METHYL-3-DECEN-5-OL],Volatility,[1]; [4],64.15 μg/l air
same,Type,[1]; [5],Middle
same,Type,[1]; [6],Middle
same,Volatility (μg/l air),[1]; [7],64.15 μg/l air
same,Odor Threshold,[2]; [4],6.78E−04 μg/l air
same,Odor Value,[2]; [4],9.46E+04
same,Odor Threshold (μg/l air),[2]; [7],6.78E−04 μg/l air
"CCOC(=O)C1OC1(C)c1ccccc1 (centres unmarked) [ETHYL 2,3-EPDXY-3-PHENYLBUTANOATE]",Volatility,[1]; [4],12.97 μg/l air
same,Type,[1]; [5],Bottom
same,Odor Threshold,[2]; [4],2.28E−05 μg/l air
same,Odor Value,[2]; [4],5.68E+05
CC(C)=CCCC1=CCC(C)(C=O)CC1 (racemic),Volatility (μg/l air),"[1]; Table 4, watery note",26.54 μg/l air
same,Type,[1]; [10],bottom (perfuming compounds having a volatility ranging from 49 to 0.1 μg/l in air are referred to as “bottom notes”)
same,Odor Threshold (μg/l air),"[2]; Table 4, watery note",2.72E−02 μg/l air
same,Odor Value,[2]; [11],9.76E+02
CC1=C[C@H](C)[C@H]2[C@H](CCC(C)(C)[C@H]2O)C1 (racemic),Volatility,[1]; [4],48.90 μg/l air
same,Type,[1]; [5],Bottom
same,Type,[1]; [6],Bottom
same,Volatility (μg/l air),[1]; [7],48.90 μg/l air
same,Odor Threshold,[2]; [4],8.15E−04 μg/l air
same,Odor Value,[2]; [4],6.00E+04
same,Odor Threshold (μg/l air),[2]; [7],8.15E−04 μg/l air
